ChEMBL document CHEMBL1143698, “Conformation selectivity in the binding of diazepam and analogues to alpha1-acid glycoprotein” (Bioorg Med Chem, 2007)

Key:
[1] = biological target: Alpha-1-acid glycoprotein 1 (Homo sapiens, UniProt P02763); assay: Binding affinity to human alpha1-acid glycoprotein at 30 uM
Albumin = Albumin (Homo sapiens, UniProt P02768); assay: Binding affinity to 30 uM human serum albumin at 30 uM
Homo sapiens [2] = organism: Homo sapiens; assay: Binding affinity to human alpha1-acid glycoprotein F1-S variant at 30 uM
Homo sapiens [3] = organism: Homo sapiens; assay: Binding affinity to human alpha1-acid glycoprotein F1-S variant at 60 uM
Homo sapiens [4] = organism: Homo sapiens; assay: Binding affinity to human alpha1-acid glycoprotein A variant at 30 uM
Homo sapiens [5] = organism: Homo sapiens; assay: Binding affinity to human alpha1-acid glycoprotein A variant at 60 uM

Sequence of Albumin (P02768 whole entry): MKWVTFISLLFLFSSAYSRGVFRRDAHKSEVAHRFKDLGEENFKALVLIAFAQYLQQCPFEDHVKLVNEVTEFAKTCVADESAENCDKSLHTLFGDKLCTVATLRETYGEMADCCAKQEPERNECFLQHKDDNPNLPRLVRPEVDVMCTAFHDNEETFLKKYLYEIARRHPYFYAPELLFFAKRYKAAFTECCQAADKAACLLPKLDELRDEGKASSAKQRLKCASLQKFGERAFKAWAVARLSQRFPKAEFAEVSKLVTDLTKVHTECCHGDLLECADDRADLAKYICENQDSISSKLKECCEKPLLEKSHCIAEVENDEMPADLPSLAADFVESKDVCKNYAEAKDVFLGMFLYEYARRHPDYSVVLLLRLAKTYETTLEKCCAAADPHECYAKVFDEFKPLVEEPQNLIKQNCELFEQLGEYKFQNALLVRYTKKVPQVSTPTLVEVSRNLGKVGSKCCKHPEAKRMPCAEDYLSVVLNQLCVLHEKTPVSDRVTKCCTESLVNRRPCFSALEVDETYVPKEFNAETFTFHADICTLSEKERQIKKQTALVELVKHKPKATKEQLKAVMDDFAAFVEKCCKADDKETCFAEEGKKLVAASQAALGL
Sequence of Alpha-1-acid glycoprotein 1 (P02763 whole entry): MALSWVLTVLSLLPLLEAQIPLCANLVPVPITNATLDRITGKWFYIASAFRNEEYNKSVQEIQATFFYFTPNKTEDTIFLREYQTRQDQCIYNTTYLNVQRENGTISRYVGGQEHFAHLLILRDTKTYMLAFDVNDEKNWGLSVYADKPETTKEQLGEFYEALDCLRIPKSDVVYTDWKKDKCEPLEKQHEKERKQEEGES

Compound | Activity [1] | Activity (Albumin) | Activity (Homo sapiens [2]) | Activity (Homo sapiens [3]) | Activity (Homo sapiens [4]) | Activity (Homo sapiens [5])
O=C1CN=C(c2ccccc2)c2cc(Cl)ccc2N1 [NORDAZEPAM] | 9 µM | 17 µM | – | – | – | –
CN1C(=O)C(C)(C)N=C(c2ccccc2)c2cc(Cl)ccc21 | 14 µM | 17 µM | – | – | – | –
CN1C(=O)CN=C(c2ccccc2)c2cc(Cl)ccc21 [DIAZEPAM] | 10 µM | – | 9 µM | 12 µM | 12 µM | 17 µM
CC1(C)N=C(c2ccccc2)c2cc(Cl)ccc2NC1=O | 13 µM | 13 µM | 9 µM | – | 12 µM | –
